Results on four molecules are retold here after patent publication US20080312150A1 (priority 1999, published 2008).

Molecules are shown by their SMILES.

One test deals with human skin. As to the kind of experiment: Fluorescence micrograph of ALA-induced PpIX in human skin. To be noted: human skin incubated in ALA for 4 hours.
For test [1], the system named is LNCaP cells. As to the kind of experiment: PDT using ALA-induced PpIX, cell survival (MTT conversion assay). It is filed as cell-based, human. To be noted: for light dose to reduce cell survival by 50% (MTT): 514 nm light; for survival after PDT: versus no pretreatment. As for the experimental part: ALA-induced PpIX for PDT of LNCaP cells with (circles) or without (triangles) pretreatment for 72 hours with 10^−7 M R1881. The cells were incubated with ALA concentrations from 0.1 to 1.0 mM for four hours prior to exposure to 10 J/cm^2 of 514 nm light.
PDT using ALA-induced PpIX in LNCaP cells with (circles) or without (triangles) pretreatment for 72 hours with 10^−7 M R1881. The cells were incubated with 0.3 mM ALA for four hours prior to exposure to 3-20 J/cm^2 of 514 nm light.
(§1) LNCaP (human prostate cancer) cells were treated with methotrexate (1 μg/ml) for 72 hours. The cells were then incubated with 0.3 mM ALA for 4 hours. After ALA treatment, cells were either used for quantification of PpIX or exposed to 514 nm light. […] This enhancement of PDT by chemotherapy can also be seen when long-term survival was assessed by colony formation assay (FIG. 6B). Here, the 50% levels are reached at 25 J/cm2, compared to 2 J/cm2. […] Chemotherapeutic effect was also confirmed using cyclophosphamide.
(In general: Tetrazolium assays rely on reduction of a dye to a coloured formazan, in cell work by metabolically active cells.)

In test [2] the test system is LNCaP (human prostate cancer) cells. Description: PDT long-term survival by colony formation assay. It is filed as cell-based. To be noted: 514 nm light. As for the experimental part:
as §1

Test [3] has as its system LNCaP human prostate cancer cells. Description: ALA-induced PpIX formation by LNCaP cells. The test is classed as cell-based. The procedure: ALA-induced PpIX formation by LNCaP human prostate cancer cells. The cells were incubated for four hours with 0.3 mM ALA after 72 hours of pretreatment with the synthetic androgen R1881 at concentrations between 10^−10 to 10^−6.
as §1

Test [4] relates to LNCaP cells. Description: Confocal laser scanning microscopy of PPIX fluorescence in living cells. It is filed as cell-based, human. The note with it: 10^−7 M R1881 72 hours, then 0.3 mM ALA 4 hours; excitation 488 nm. As for the experimental part: LNCaP cells were pretreated with 10^−7 M R1881 for 72 hours or with vehicle, and then incubated with 0.3 mM ALA. At 4 hours the living cells were imaged using the confocal laser scanning microscope. Excitation was at 488 nm and both green (auto fluorescence) and red (PPIX) fluorescence was recorded and combined.

The next test concerns LNCaP tumors. As to the kind of experiment: PpIX formation in LNCaP tumors in vivo (confocal imaging of frozen sections). More on the design: species or system SCID mice. The note with it: 400 pg/kg R1881, after 4 days 250 mg/kg ALA i.p., tumors removed at 4 hours; 633 nm excitation. As for the experimental part: SCID mice bearing LNCaP tumors were pretreated with a high dose of 400 pg/kg R1881 and after 4 days received 250 mg/kg ALA i.p. At 4 hours, the mice were sacrificed and the tumors removed. Frozen sections of the tumors were imaged on the confocal laser scanning microscope. Using 633 nm excitation, the sections of tumors from an untreated mouse (FIG. 5A) and an R1881-pretreated mouse (FIG. 5B) were imaged at the same instrument parameters.

The conditions of test [5]: cell line and regimen not stated. As for the experimental part:
as §1

Setting [6] is: PDT alone: 0.3 mM ALA 4 hours, no methotrexate.
[7] abbreviates: combined regimen: methotrexate 1 μg/ml 72 hours, 0.3 mM ALA 4 hours.

As for `NCC(=O)CCC(=O)O` [ALA], in the test on human skin, the “ALA-induced PpIX fluorescence signal across epidermal layers” value is recorded as “increase of fluorescence signal from bottom to top epidermal layers”. In the test with LNCaP cells [1] (setting [6]), the “light dose to reduce cell survival by 50% (MTT)” value worked out at 20 J/cm2. In test [2] (setting [6]), the “light dose for 50% level (colony formation)” value is reported as 25 J/cm2.
With `C[C@]1(O)CC[C@H]2[C@@H]3CCC4=CC(=O)CCC4=C3C=C[C@@]21C` [R1881], the “ALA-induced PpIX formation (% of cells without androgen treatment)” value in test [3] (72 hours pretreatment with R1881 10^−10 to 10^−6, then 0.3 mM ALA four hours) is on record as “significant increase”. For the same molecule, the “survival after PDT” value with LNCaP cells [1] (72 hours 10^−7 M R1881, 0.3 mM ALA four hours, 3-20 J/cm^2 of 514 nm light) is “Reduced survival”; in the test with LNCaP cells [1] (72 hours 10^−7 M R1881, ALA 0.1 to 1.0 mM four hours, 10 J/cm^2 of 514 nm light), “Reduced survival”. For the same molecule, the “PPIX fluorescence in cells” value in the test on LNCaP cells [4] is on record as “strong PPIX fluorescence in almost all cells”. Moreover, the “PpIX formation in tumors” value in the test on LNCaP tumors is recorded as “increased PpIX formation”.
Take `O=P1(N(CCCl)CCCl)NCCCO1` (stereo not drawn) [cyclophosphamide]: the “chemotherapeutic effect (enhancement of PDT by pretreatment)” value in test [5] was “confirmed”.
Consider `CN(Cc1cnc2nc(N)nc(N)c2n1)c1ccc(C(=O)N[C@@H](CCC(=O)O)C(=O)O)cc1` [methotrexate], for which the “increase in PpIX levels” value in test [3] (methotrexate 1 μg/ml 72 hours, then 0.3 mM ALA 4 hours, mean+/−standard deviation) turned out to be 4.1±1.1 fold. For the same molecule, the “light dose to reduce cell survival by 50% (MTT)” value with LNCaP cells [1] (setting [7]) amounted to 2 J/cm2. For the same molecule, the “light dose for 50% level (colony formation)” value in test [2] (setting [7]) was 2 J/cm2.
